Experimental data as given in patent US5545547A, “Enzymes as agricultural chemical adjuvants” (priority 1992, dated 1996).
Blank lines part the entries; values can stand above or below the molecule they belong to.

Key:
soybean leaf discs = assay: Uptake of radiolabeled agricultural chemicals into leaf discs; format: in vitro ADME
Description: Leaf discs (1 cm diameter) were prepared from 9-13 day old soybean plants, and planed them on a nitrocellulose paper that was presoaked with 100 ug/ml stocptomycin in a petri dish. Radioactive chemicals were dissolved in 100 mM sodium phosphate buffer containing 0.05% TRITON X-100 surfactant [drawing 1] where n is an integer from 9 to 10 In addition to TRITON surfactant, (^14 C) uracil solution contained 0.4% ethanol, (^14 C) atrazine contained 10% ethanol (^14 C) indole acetic acid contained 2% ethanol and (^14 C) urea contained 0.2% ethanol. 5 ul of the radioactive chemical solution (9/uci/ml) was applied on the leaf disc and incubated for 5-7 hr at room temperature. After the incubation, leaf discs were rinsed 3 times with 0.025% TRITON X-100 surfactant solution and transferred into separate scintillation vials. Radioactivity taken up by each leaf disc was determined by a scintillation counter after adding 10 ml of Ecolite scintillation fluid into each vial. Ten leaf discs were used for each data point in all experiments. All radioactive chemicals were obtained from Amersham (U.S.A.). The specific activities of the chemicals were as follows:
Cutinase enzyme same as before.
Macerating enzyme, GC219, is an enzyme mixture sold by Genencor which comprises of cellulase, pectinase and hemicellulase.

Soybeans = assay: Greenhouse multispecies herbicide screen with/without P. mendocina enzyme; format: in vivo; details: two weeks after treatment
Text: (§1) Several plant species including weeds and crops are used in these experiments.
(§2) A number of herbicides from various chemical classes were compared in a multispecies screen for percent chlorosis, necrosis and vigor reduction both with and without application of the enzyme from Pseudomonas mendocina ATCC 53552 described earlier. The herbicides were applied to various plants at the manufacturers recommended doses and at 10% and 40% of the recommended dose. Two different enzyme concentrations were used: 0.5 mg/ml (HE) and 0.05 mg/ml (LE) and applied at the rate of 40 gallons/acre. All spraying solutions were at pH 10 and contained 100 mm sodium phosphate each. Ratings were done at 6 and 12 days after the treatment. All the experiments were carried out in a greenhouse.
(§3) Chlorosis--figures represent percent of plants showing chlorosis.
(§4) Necrosis--figures represent percent of plants showing necrosis.
(§5) Vigor--figures represent percent of plants showing decreased vigor.
(§6) Phytotoxicity--figures represent the average percent of chlorosis, necrosis, and vigor for a given sample.
(§7) The method of Example 1 was used except that the enzyme was applied 2 hours prior to administering the agricultural chemical with the following results. Ratings were done two weeks after treatment

Turnip = assay: as above; format: in vivo; details: two weeks after treatment
Text: as §1, §2, §3, §4, §5, §6, §7

Trichoderma reesei QM6A = assay: Fungicide uptake in soybean plants, leaf extract rated for inhibition of fungal growth; parameters: key: -no inhibition; +weak inhibition; ++=good inhibition; +++=strong inhibition
Description: The difoliate leaflets of 9-13 day old soybeam plants were treated with solutions of cutinase (100 ug/ml), BENOMYL fungicide [1-(butylcarbamoyl)-2-benzimidazolecarbamic acid methyl ester] (1 mg/ml), and GC219 (12.6 mg/ml) alone and BENOMYL fungicide [1-(butylcarbamoyl)-2-benzimidazolecarbamic acid methyl ester] plus enzymes. The solutions were dissolved in 100 mM sodium phosphate, pH 7 containing 0.5% TRITON surfactant [drawing 2] where n is an integer from 9 to 10 X-100. In addition to TRITON X-100 surfactant, [drawing 3] where n is an integer from 9 to 10 the BENOMYL fungicide [1-(butylcarbamoyl)-2-benzimidazolecarbamic acid methyl ester] contained 5% Dimethyl formamide. For each experiment 100 ul of solution was applied in 5 ul droplets to each difoliate leaflet. Duplicate plants were treated in this manner. The treated plants were incubated for two hours under normal greenhouse conditions. Identical solutions as those applied to the plants were also incubated for two hours to assure chemical stability under greenhouse conditions. After the incubation, the treated leaves were cut at the petiole and rinsed with a 0.05% TRITON X-100 surfactant [drawing 4] where n is an integer from 9 to 10 solution. Both difoliates were then ground with a mortar and pestle with 1.5 ml of a 100 mM sodium phosphate, pH 7 buffer. The extract was centrifuged and the supernatant was sterile filtered through a 0.45 um disc. The supernatant was then added to CMA media containing 2% agar to yield a final volume of 10 mls. 5 mls was them poured into a single well in a 6 well culture plate. Serial dilutions were made for each solution to achieve 1:1, 1:2 and 1:4 dilution of the plant extract in the agar.
Once the agar was solidified each well was innoculated with spores of Trichoderma reesei QM6A strain. The plates were incubated at 30° C. for 24 hours and the growth of T. reesei was rated.

[1] = tested on: Pseudomonas mendocina ATCC 53552 lipase, crude preparation of Example 1(C) (includes Lipase 1 and Lipase 2); assay: Binding of p-nitrophenyl substrates and turnover kinetics, crude lipase preparation; format: biochemical; details: 0.1M Tris, 0.1 wt. Triton X-100, pH 8.0, 25° C.
Text: The recovered filtrate from the Amicon unit was concentrated to a volume of 3 liters on an Amicon ultrafiltration unit with two Romicon Pm 10 modules. The concentrated material was then dialyzed with 20 liters of 0.01M phosphate buffer, pH 7.5, to remove salts and color. Recovery at this stage averaged about 80%. Total activity for this crude preparation was 8.68×10^6 units. A unit of lipase activity is defined as the amount of enzyme which results in an increase of absorbance at 415 nm of 1.0/minute when incubated at 25° C. with 2.0 mM p-nitrophenylbutyrate in 0.1M pH 8.0 Tris-HCl buffer containing 0.1 wt. adjuvant Triton X-100.
The binding of three p-nitrophenyl substrates and the turnover kinetics were studied for the crude preparation of Example 1(C), where reaction conditions were 0.1M Tris with 0.1 wt. adjuvant Triton X-100, pH 8.0, at 25° C. The substrates were p-nitrophenyl caprylate, p-nitrophenyl laurate, and p-nitrophenyl palmitate, and the data is set out in Table

Background uptake, Radioactivity (cpm) (soybean leaf discs): 1292 cpm
Compound: O=C(O)Cc1c[nH]c2ccccc12 [Indole Acetic Acid]

Km [1]: 214 µM
Vmax [1]: 802 μmole/min/mg protein
Compound: CCCCCCCC(=O)Oc1ccc([N+](=O)[O-])cc1 [PNPC, p-nitrophenyl caprylate]

Km [1]: 167 µM
Vmax [1]: 214 μmole/min/mg protein
Compound: CCCCCCCCCCCC(=O)Oc1ccc([N+](=O)[O-])cc1 [PNPL, p-nitrophenyl laurate]

Km [1]: 183 µM
Vmax [1]: 112 μmole/min/mg protein
Compound: CCCCCCCCCCCCCCCC(=O)Oc1ccc([N+](=O)[O-])cc1 [PNPP, p-nitrophenyl palmitate]

The remaining lines, values behind:

Compound: CCNc1nc(Cl)nc(NC(C)C)n1 [ATRAZINE, Atrazine]
Uptake, Radioactivity (cpm) (soybean leaf discs; Herbicide table, atrazine, without any addition of protein): 24007 ± 3984 cpm
Uptake, Radioactivity (cpm) (soybean leaf discs; Herbicide table, pH 7.0, Cutinase 100 ug/ml, Active Enzyme): 42684 ± 2333 cpm
Uptake, Radioactivity (cpm) (soybean leaf discs; Herbicide table, pH 7.0, Cutinase 100 ug/ml, Inactive Protein Control (A126)): 24832 ± 2834 cpm
Uptake, Radioactivity (cpm) (soybean leaf discs; Herbicide table, pH 7.0, Cutinase 200 ug/ml, Active Enzyme): 54133 ± 2874 cpm
Uptake, Radioactivity (cpm) (soybean leaf discs; Herbicide table, pH 7.0, Cutinase 200 ug/ml, Inactive Protein Control (A126)): 31097 ± 2959 cpm
CHL (chlorosis) (Soybeans; ATRAZINE 10% dose, High Enzyme): 55%
NEC (necrosis) (Soybeans; ATRAZINE 10% dose, High Enzyme): 18%
PHY (phytotoxicity) (Soybeans; ATRAZINE 10% dose, High Enzyme): 12%
VIG (vigor) (Soybeans; ATRAZINE 10% dose, High Enzyme): 13%
CHL (chlorosis) (Soybeans; ATRAZINE 10% dose, Low Enzyme): 38%
NEC (necrosis) (Soybeans; ATRAZINE 10% dose, Low Enzyme): 58%
PHY (phytotoxicity) (Soybeans; ATRAZINE 10% dose, Low Enzyme): 48%
VIG (vigor) (Soybeans; ATRAZINE 10% dose, Low Enzyme): 48%
CHL (chlorosis) (Soybeans; ATRAZINE 10% dose, No Enzyme): 10%
NEC (necrosis) (Soybeans; ATRAZINE 10% dose, No Enzyme): 33%
PHY (phytotoxicity) (Soybeans; ATRAZINE 10% dose, No Enzyme): 34%
VIG (vigor) (Soybeans; ATRAZINE 10% dose, No Enzyme): 50%
CHL (chlorosis) (Soybeans; ATRAZINE 40% dose, High Enzyme): 80%
NEC (necrosis) (Soybeans; ATRAZINE 40% dose, High Enzyme): 88%
PHY (phytotoxicity) (Soybeans; ATRAZINE 40% dose, High Enzyme): 85%
VIG (vigor) (Soybeans; ATRAZINE 40% dose, High Enzyme): 88%
CHL (chlorosis) (Soybeans; ATRAZINE 40% dose, Low Enzyme): 100%
NEC (necrosis) (Soybeans; ATRAZINE 40% dose, Low Enzyme): 100%
PHY (phytotoxicity) (Soybeans; ATRAZINE 40% dose, Low Enzyme): 100%
VIG (vigor) (Soybeans; ATRAZINE 40% dose, Low Enzyme): 100%
CHL (chlorosis) (Soybeans; ATRAZINE 40% dose, No Enzyme): 55%
NEC (necrosis) (Soybeans; ATRAZINE 40% dose, No Enzyme): 63%
PHY (phytotoxicity) (Soybeans; ATRAZINE 40% dose, No Enzyme): 58%
VIG (vigor) (Soybeans; ATRAZINE 40% dose, No Enzyme): 55%
CHL (chlorosis) (Turnip; ATRAZINE 10% dose, High Enzyme): 25%
NEC (necrosis) (Turnip; ATRAZINE 10% dose, High Enzyme): 25%
PHY (phytotoxicity) (Turnip; ATRAZINE 10% dose, High Enzyme): 25%
VIG (vigor) (Turnip; ATRAZINE 10% dose, High Enzyme): 25%
CHL (chlorosis) (Turnip; ATRAZINE 10% dose, Low Enzyme): 50%
NEC (necrosis) (Turnip; ATRAZINE 10% dose, Low Enzyme): 38%
PHY (phytotoxicity) (Turnip; ATRAZINE 10% dose, Low Enzyme): 46%
VIG (vigor) (Turnip; ATRAZINE 10% dose, Low Enzyme): 50%
CHL (chlorosis) (Turnip; ATRAZINE 10% dose, No Enzyme): 38%
NEC (necrosis) (Turnip; ATRAZINE 10% dose, No Enzyme): 23%
PHY (phytotoxicity) (Turnip; ATRAZINE 10% dose, No Enzyme): 37%
VIG (vigor) (Turnip; ATRAZINE 10% dose, No Enzyme): 50%
CHL (chlorosis) (Turnip; ATRAZINE 40% dose, High Enzyme): 75%
NEC (necrosis) (Turnip; ATRAZINE 40% dose, High Enzyme): 88%
PHY (phytotoxicity) (Turnip; ATRAZINE 40% dose, High Enzyme): 84%
VIG (vigor) (Turnip; ATRAZINE 40% dose, High Enzyme): 88%
CHL (chlorosis) (Turnip; ATRAZINE 40% dose, Low Enzyme): 90%
NEC (necrosis) (Turnip; ATRAZINE 40% dose, Low Enzyme): 90%
PHY (phytotoxicity) (Turnip; ATRAZINE 40% dose, Low Enzyme): 90%
VIG (vigor) (Turnip; ATRAZINE 40% dose, Low Enzyme): 90%
CHL (chlorosis) (Turnip; ATRAZINE 40% dose, No Enzyme): 70%
NEC (necrosis) (Turnip; ATRAZINE 40% dose, No Enzyme): 70%
PHY (phytotoxicity) (Turnip; ATRAZINE 40% dose, No Enzyme): 74%
VIG (vigor) (Turnip; ATRAZINE 40% dose, No Enzyme): 83%

Compound: CCCCNC(=O)n1c(NC(=O)OC)nc2ccccc21 [BENOMYL fungicide, 1-(butylcarbamoyl)-2-benzimidazolecarbamic acid methyl ester]
Inhibition of Fungal Growth (Trichoderma reesei QM6A; BENOMYL alone (1 mg/ml on leaves), 1:1 dilution of plant extract): -
Inhibition of Fungal Growth (Trichoderma reesei QM6A; BENOMYL alone, 1:2 dilution): -
Inhibition of Fungal Growth (Trichoderma reesei QM6A; BENOMYL alone, 1:4 dilution): -
Inhibition of Fungal Growth (Trichoderma reesei QM6A; Cutinase (100 ug/ml) and BENOMYL, 1:1 dilution): +++
Inhibition of Fungal Growth (Trichoderma reesei QM6A; Cutinase and BENOMYL, 1:2 dilution): ++
Inhibition of Fungal Growth (Trichoderma reesei QM6A; Cutinase and BENOMYL, 1:4 dilution): +
Inhibition of Fungal Growth (Trichoderma reesei QM6A; GC219 (12.6 mg/ml) and BENOMYL, 1:1 dilution): ++
Inhibition of Fungal Growth (Trichoderma reesei QM6A; GC219 and BENOMYL, 1:2 dilution): +
Inhibition of Fungal Growth (Trichoderma reesei QM6A; GC219 and BENOMYL, 1:4 dilution): -

Compound: CN(C)C(=O)Nc1ccc(Cl)c(Cl)c1 [Diuron, diuron]
Uptake, Radioactivity (cpm) (soybean leaf discs; Herbicide table, Diuron, without any addition of protein): 5739 ± 1376 cpm
Uptake, Radioactivity (cpm) (soybean leaf discs; Herbicide table, pH 10, Cutinase 200 ug/ml, Active Enzyme): 8592 ± 803 cpm
Uptake, Radioactivity (cpm) (soybean leaf discs; Herbicide table, pH 10, Cutinase 200 ug/ml, Inactive Protein Control (A126)): 6878 ± 2126 cpm

Compound: O=c1cc[nH]c(=O)[nH]1 [Uracil, uracil]
Uptake, Radioactivity (cpm) (soybean leaf discs; pH 7): 2090 ± 549 cpm
Uptake, Radioactivity (cpm) (soybean leaf discs; pH 10): 507 ± 162 cpm

Compound: NC(N)=O [Urea, urea]
Uptake, Radioactivity (cpm) (soybean leaf discs; pH 7): 785 ± 141 cpm
Uptake, Radioactivity (cpm) (soybean leaf discs; pH 10): 398 ± 43 cpm
